Measurements reported in ChEMBL document CHEMBL1153596, “Design, synthesis, and characterization of 6beta-naltrexol analogs, and their selectivity for in vitro opioid receptor subtypes” (Bioorg Med Chem Lett, 2009).

Legend:
Mu-type opioid receptor = Mu-type opioid receptor (Homo sapiens, UniProt P35372); test: Displacement of [3H]DAMGO from human mu opioid receptor expressed in CHO cells by liquid scintillation counting; assay type: cell-based
[1] = target: Delta-type opioid receptor (Homo sapiens, UniProt P41143); test: Displacement of [3H]DADLE from human delta opioid receptor expressed in CHO cells by liquid scintillation counting; assay type: cell-based
Chain of Delta-type opioid receptor (P41143 whole entry): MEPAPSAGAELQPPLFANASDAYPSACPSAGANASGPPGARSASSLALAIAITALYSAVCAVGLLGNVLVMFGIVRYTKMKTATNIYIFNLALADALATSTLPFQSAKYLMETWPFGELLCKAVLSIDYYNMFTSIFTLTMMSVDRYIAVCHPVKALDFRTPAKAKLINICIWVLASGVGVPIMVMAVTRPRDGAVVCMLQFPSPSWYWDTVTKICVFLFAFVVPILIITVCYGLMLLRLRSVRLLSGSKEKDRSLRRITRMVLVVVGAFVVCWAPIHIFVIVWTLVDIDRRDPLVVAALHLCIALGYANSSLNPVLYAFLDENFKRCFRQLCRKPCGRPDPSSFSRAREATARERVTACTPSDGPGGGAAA

[2] = target: Kappa-type opioid receptor (Homo sapiens, UniProt P41145); test: Displacement of [3H]U69,593 from human kappa opioid receptor expressed in CHO cells by liquid scintillation counting; assay type: cell-based
Chain of Kappa-type opioid receptor (P41145 whole entry): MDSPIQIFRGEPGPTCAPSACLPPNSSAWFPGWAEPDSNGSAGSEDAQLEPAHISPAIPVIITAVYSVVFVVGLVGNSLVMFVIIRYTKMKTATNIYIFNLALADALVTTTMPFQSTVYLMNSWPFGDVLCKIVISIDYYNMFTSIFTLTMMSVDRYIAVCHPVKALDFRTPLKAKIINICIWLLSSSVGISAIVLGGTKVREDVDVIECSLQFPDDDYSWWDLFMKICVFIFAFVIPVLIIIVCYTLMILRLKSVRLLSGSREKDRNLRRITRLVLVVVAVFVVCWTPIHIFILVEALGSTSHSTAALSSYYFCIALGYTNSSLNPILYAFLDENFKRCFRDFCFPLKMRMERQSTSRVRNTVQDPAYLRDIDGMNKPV

Homo sapiens [3] = species on record: Homo sapiens; test: Selectivity ratio of Ki for human delta opioid receptor to Ki for human mu opioid receptor
Homo sapiens [4] = species on record: Homo sapiens; test: Selectivity ratio of Ki for human kappa opioid receptor to Ki for human mu opioid receptor

Chain of Mu-type opioid receptor (P35372 whole entry): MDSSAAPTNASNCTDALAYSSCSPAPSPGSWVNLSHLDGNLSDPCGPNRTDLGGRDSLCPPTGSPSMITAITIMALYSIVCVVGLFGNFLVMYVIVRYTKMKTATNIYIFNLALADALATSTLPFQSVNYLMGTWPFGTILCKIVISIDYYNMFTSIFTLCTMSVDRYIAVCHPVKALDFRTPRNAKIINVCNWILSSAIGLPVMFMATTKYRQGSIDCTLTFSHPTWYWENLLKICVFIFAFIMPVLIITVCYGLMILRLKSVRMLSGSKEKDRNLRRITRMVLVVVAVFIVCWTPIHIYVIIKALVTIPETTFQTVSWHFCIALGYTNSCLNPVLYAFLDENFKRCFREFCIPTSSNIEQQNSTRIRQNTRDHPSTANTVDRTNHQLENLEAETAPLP

`CN(C)C(=O)O[C@@H]1CC[C@@]2(O)[C@H]3Cc4ccc(O)c5c4[C@@]2(CCN3CC2CC2)[C@H]1O5` was tested, and the Ki (Mu-type opioid receptor) was 1.85 nM, the Ki [1] was 334 nM and the Ki [2] was 28.2 nM. For the same compound, the Ratio Ki (Homo sapiens [3]) was 180 and the Ratio Ki (Homo sapiens [4]) was 15.2.

`Cc1ccc(S(=O)(=O)O[C@@H]2CC[C@@]3(O)[C@H]4Cc5ccc(O)c6c5[C@@]3(CCN4CC3CC3)[C@H]2O6)cc1` gave a Ki (Mu-type opioid receptor) of 0.79 nM, a Ki [1] of 5.16 nM and a Ki [2] of 1.66 nM. For the same compound, the Ratio Ki (Homo sapiens [3]) was 6.5 and the Ratio Ki (Homo sapiens [4]) was 2.1.

Work on `CS(=O)(=O)O[C@@H]1CC[C@@]2(O)[C@H]3Cc4ccc(O)c5c4[C@@]2(CCN3CC2CC2)[C@H]1O5` yielded a Ki (Mu-type opioid receptor) of 1.11 nM, a Ki [1] of 93.1 nM and a Ki [2] of 6.75 nM. It also gave a Ratio Ki (Homo sapiens [3]) of 83.8 and a Ratio Ki (Homo sapiens [4]) of 6.1.

`O=C(O[C@@H]1CC[C@@]2(O)[C@H]3Cc4ccc(O)c5c4[C@@]2(CCN3CC2CC2)[C@H]1O5)N(c1ccccc1)c1ccccc1` was tested, and the Ki (Mu-type opioid receptor) was 0.56 nM, the Ki [1] was 74.6 nM and the Ki [2] was 14.7 nM. The Ratio Ki (Homo sapiens [3]) was 133 and the Ratio Ki (Homo sapiens [4]) was 26.3.
